According to US6737400B2, “Method and composition for treating irritable bowel syndrome using low doses of opioid receptor antagonists” (Albert Einstein College of Medicine of Yeshiva University, priority 1999, dated 2004):

Legend:
[1] = test system: constipation-predominant IBS patients; details: eight patients, 16 mg three times a week, eight weeks; cited from earlier work
[2] = test system: opioid analgesia in postsurgical patients; details: cited from earlier work; for Effect on analgesic potency of morphine: low-dose cotreatment with morphine, postsurgical patients, 24-hour test periods
patients with IBS = assay: Open clinical study of low dose naltrexone in patients with IBS (daily symptom diary, global self-assessment); type: in vivo, human
Protocol: An open study of low dose naltrexone administration in four (4) patients with IBS was initiated. The patients were evaluated for IBS, based on the Rome criteria. All patients were screened for other disorders or medications that could cause gastrointestinal symptoms of IBS. These included inflammatory bowel disease, cancer, lactose intolerance, and neurological disorders, as well as the use of narcotic medications. […] Each subject was fully informed of the benefits and possible side effects of the study and thereafter freely gave their consent to participate in the study.
Each patient maintained a daily diary of the symptoms prior to and during treatment with 1-3 mg/day of naltrexone. Each participant noted the following symptoms:
Patients were permitted to remain on medications other than anticholinergics and anti-diarrheal agents (i.e., fiber bulking agents or lactose enzyme replacement if needed).
Naltrexone (tradename Revia; 50 mg tablets; DuPont Merck) was purchased at a pharmacy. Single tablets were crushed and dissolved in 50 ml boiled distilled water, and stored unfrozen in a refrigerator. Each patient received 2 ml (2 mg) orally each morning with breakfast. Medication was prepared weekly and used for seven doses, with the remainder being discarded.

IBS patients = details: 30 mg, three times daily; cited from earlier work
[3] = Patient A, after 24 months, 2.5-3.0 mg/day
[4] = Patient B, after 12 months, 1.5-2.3 mg/day
[5] = Patient D, after 9 months, 2.5-3.0 mg/day

Molecule: C=C1CCC2(O)C3Cc4ccc(OC5OC(C(=O)O)C(O)C(O)C5O)c5c4C2(CCN3CC2CC2)C1O5 (stereo not shown) [nalmefene glucuronide, Nalmefene glucuronide]
- Abdominal pain or bloating [1]: did not reduce abdominal pain or bloating
- Stool consistency [1]: not improved
- Stool frequency [1]: increased stool frequency
- Transit time [1]: decreased transit time

Molecule: C=C1CC[C@@]2(O)[C@H]3Cc4ccc(O)c5c4[C@@]2(CCN3CC2CC2)[C@H]1O5 [nalmefene]
- Effect on morphine's analgesic potency ([2]; ca. 15 μg, IV): markedly enhance morphine's analgesic potency
- Effect on opioid analgesia ([2]; doses of >0.5 mg): markedly attenuate opioid analgesia
- Effect on analgesic potency of morphine [2]: markedly enhanced the analgesic potency of morphine

Molecule: C=CCN1CC[C@]23c4c5ccc(O)c4O[C@H]2C(=O)CC[C@@]3(O)[C@H]1C5 [naloxone]
- Effect on analgesic potency of morphine [2]: markedly enhanced the analgesic potency of morphine

Molecule: O=C1CC[C@@]2(O)[C@H]3Cc4ccc(O)c5c4[C@@]2(CCN3CC2CC2)[C@H]1O5 [naltrexone]
- Abdominal cramping (patients with IBS; [3]): completely ceased
- Frequency of bowel actions (patients with IBS; [3]): returned to normal levels
- Cramping abdominal pain (patients with IBS; Patient A, after nine months of treatment): no cramping abdominal pain
- Stool frequency (patients with IBS; Patient A, after nine months of treatment, oral daily, before treatment about 4-8 times per day): 1-2 formed bowel movements per day
- Global improvement on the 0-4 scale (patients with IBS; Patient A, 0 = no observable change, 4 = marked and substantially improved): 4
- Global improvement on the 0-4 scale (patients with IBS; Patient B): 3
- Frequency of bowel actions (patients with IBS; [4]): no change
- Reduction in abdominal cramping (patients with IBS; [4]): 50%
- Abdominal pain associated with cramping (patients with IBS; Patient B, after 75 days of treatment): total elimination of abdominal pain associated with cramping
- Stool frequency (patients with IBS; Patient B, after 75 days of treatment, before treatment 10-12 diarrheal movements per day): 2-4 bowel movements per day
- Global improvement on the 0-4 scale (patients with IBS; Patient C): 2.5
- IBS symptoms (patients with IBS; Patient C, 24 month follow-up, diagnosed with fibromyalgia, 1-2 mg/day, stopped after 6 months): did not respond
- Abdominal pain associated with cramping (patients with IBS; Patient C, after 75 days of 2 mg/day): eliminated
- Frequency of loose bowel movements (patients with IBS; Patient C, after 75 days of 2 mg/day, before treatment 2-3 loose bowel movements daily): halved in frequency
- Global improvement on the 0-4 scale (patients with IBS; Patient D): 2.5
- Decrease in cramping (patients with IBS; [5]): 75%
- Reduction in frequency of bowel actions (patients with IBS; [5]): 20%
- IBS symptoms after treatment was halted (patients with IBS; Patient D, low-dose treatment halted after 9 months): IBS symptoms returned
- Abdominal cramping symptoms (patients with IBS; Patient D, upon initiation of low dose treatment, continued over 70 days): immediate relief of abdominal cramping symptoms
- Reduction in stool frequency (patients with IBS; Patient D, upon initiation, continued over 70 day treatment period, before treatment 7-10 unformed diarrheal movements per day): 50%
- IBS symptoms on every other day dosing schedule (patients with IBS; Patients A and C, dosing changed to every other day): IBS symptoms returned
- Side effects (patients with IBS; four patients, 2 mg orally each morning): None of the four patients reported discernible side effects

Molecule: fedotizine
- Treatment of IBS (IBS patients): successful treatment
